PubChem BioAssay (NCI)
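Exposure lasted 48 hours, with cells grown in 96-well plates and compounds tested at five concentrations. GI50 is the concentration that inhibits growth by half. TGI is the concentration that stops growth completely.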 The source made the active and inactive calls. Cut-off read from the data, not from the text of the source: active = GI50 below about 0.43 µM; inactive = the rest.

Columns and labels:
Experiment in all cases: DTP human tumour cell line panel, 48 h
DLD-1 colon = system: DLD-1 colon
DMS 114 small cell lung = system: DMS 114 small cell lung
DMS 273 small cell lung = system: DMS 273 small cell lung
LXFL 529 NSCLC = system: LXFL 529 NSCLC
RXF-631 renal = system: RXF-631 renal
SNB-78 CNS = system: SNB-78 CNS
XF 498 CNS = system: XF 498 CNS
DU-145 prostate = system: DU-145 prostate
T-47D breast = system: T-47D breast

SMILES	TGI (DLD-1 colon)	TGI (DMS 114 small cell lung)	TGI (DMS 273 small cell lung)	TGI (LXFL 529 NSCLC) [µM]	TGI (RXF-631 renal) [µM]	TGI (SNB-78 CNS) [µM]	TGI (XF 498 CNS) [µM]	TGI (DU-145 prostate) [µM]	TGI (T-47D breast) [µM]	GI50 (DLD-1 colon) [µg/mL]	GI50 (DMS 114 small cell lung) [µg/mL]	GI50 (DMS 273 small cell lung) [µg/mL]	outcome (LXFL 529 NSCLC)	outcome (RXF-631 renal)	outcome (XF 498 CNS)
COc1ccc(C2ON(c3cccc(C)n3)CC=C2C)cc1 (stereo unspecified)	> 100 µM	> 100 µM	> 100 µM	> 100	> 100	> 100	> 100								
CC(=O)OCC1OC(n2c(-c3ccc(C)cc3)cc(-c3ccccc3)c(C#N)c2=O)C(OC(C)=O)C(OC(C)=O)C1OC(C)=O (stereo unspecified)	> 100 µM	> 100 µM		> 100	> 100	> 100	> 100								
CN(C)c1ccc(/C=c2\sc3nc4ccccc4n3c2=O)cc1	> 100 µM	> 100 µM	> 100 µM	> 100	> 100	> 100	> 100								
Cc1cc(C)c(-n2c(-c3ccc(Br)cc3)cs/c2=N\N=C2C=C(C(C)(C)C)C(=O)C(C(C)(C)C)=C2)c(C)c1	> 100 µM	> 100 µM	> 100 µM	> 100	> 100	> 100	> 100	> 100	> 100						
CCCSS[C@H]1NC(=O)[C@H]1NC(=O)COc1ccccc1	23.2 µM	34.5 µM	31.2 µM	18.3	31.6	60.6	33.8								
Cn1cc2ccccc2c1-c1nc(F)nc(OCC(=O)[C@H]2CCC3[C@@H]4CCC5=CC(=O)CC[C@]5(C)C4[C@@H](O)C[C@@]32C)n1 (stereo partly specified)	22.5 µM	22.5 µM	36.1 µM	9.59	6.82	47.3	21.9								
CN1C(=O)C2C(C1=O)C1(O)c3ccccc3C2(N)c2ccccc21 (stereo unspecified)	> 100 µM	> 100 µM	> 100 µM		> 100	> 100									
NC(N)=NS(=O)(=O)c1ccc(NCCc2c3ccccc3nc3ccccc23)cc1	> 100 µM	> 100 µM	> 100 µM	> 100	> 100										
Cc1cc(Cl)ccc1NC(=O)CC1SC(=Nc2ccccc2Cl)NC1=O (stereo unspecified)	> 100 µM	67.5 µM	> 100 µM	> 100	> 100	> 100	> 100								
CCN(CC)c1ccc(N=Nc2ccc(-c3nc4ccc[n+](C)c4o3)cc2)cc1	20.1 µM	15.8 µM	23.3 µM	16.7	> 100	32.6	23.5								
COc1ccc(OCC(=O)O)c(C(=O)CCC(=O)O)c1	> 100 µM	> 100 µM	> 100 µM	> 100	> 100	> 100	> 100								
COC(C)(C)C/C=C/C(C)=C/C=C/C(C)=C\C=C\C(C)=C\C=C\C=C(C)\C=C\C=C(C)\C=C\C=C(C)\C=C\CC(C)(C)OC	> 150 µg/mL	> 150 µg/mL	> 150 µg/mL							> 150	> 150	> 150	inactive	inactive	inactive
COc1cc2c(cc1OC)/C(=C\c1ccccc1N)C(=O)OC2	29.3 µM	34.7 µM	25.5 µM	17.7	23.5										
CN(C)CC/[N+]([O-])=C(/c1ccccc1)C12CC3CC(CC(C3)C1)C2	32 µM	36 µM		39.1	32.8	41.8	25.9								
Cc1cc(C)cc(NC(N)=S)c1	> 100 µM	> 100 µM	> 100 µM	> 100	> 100	> 100	> 100								
